Read-outs that look alike come from different tables or passages of the source.
How the values were obtained:
JAK1 = JAK1 (Homo sapiens (Human), UniProt P23458); test: Jak biochemical HTRF assay, JAK1
JAK2 = JAK2 (Homo sapiens (Human), UniProt O60674); test: Jak biochemical HTRF assay, JAK2
[1] = JAK1 IC50 (nM), recombinant GST-tagged catalytic domain, [ATP] 31.8 μM
[2] = JAK2 IC50 (nM), recombinant GST-tagged catalytic domain, [ATP] […]

Chain of JAK2 (O60674 849-1124): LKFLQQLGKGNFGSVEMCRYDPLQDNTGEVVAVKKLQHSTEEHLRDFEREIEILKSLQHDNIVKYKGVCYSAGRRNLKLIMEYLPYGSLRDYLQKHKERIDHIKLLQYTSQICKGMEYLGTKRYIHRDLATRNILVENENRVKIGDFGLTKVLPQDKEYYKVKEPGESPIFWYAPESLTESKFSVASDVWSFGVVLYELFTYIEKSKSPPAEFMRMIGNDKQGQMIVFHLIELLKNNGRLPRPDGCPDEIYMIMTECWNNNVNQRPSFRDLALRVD
Chain of JAK1 (P23458 875-1153): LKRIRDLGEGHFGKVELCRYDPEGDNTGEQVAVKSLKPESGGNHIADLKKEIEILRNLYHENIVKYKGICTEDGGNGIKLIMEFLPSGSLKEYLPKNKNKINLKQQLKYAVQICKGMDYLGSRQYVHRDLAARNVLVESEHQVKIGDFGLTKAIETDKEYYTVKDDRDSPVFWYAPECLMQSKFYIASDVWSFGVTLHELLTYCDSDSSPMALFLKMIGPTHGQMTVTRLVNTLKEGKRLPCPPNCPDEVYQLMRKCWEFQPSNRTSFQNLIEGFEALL

| Compound | IC50 (JAK1; [1]) [nM] | IC50 (JAK2; [2]) [nM] | IC50 (JAK1; read-out: JAK1 IC50, recombinant GST-tagged catalytic domain, [ATP] 31.8 μM) [nM] | IC50 (JAK2; read-out: JAK2 IC50, recombinant GST-tagged catalytic domain, [ATP] […]) [nM] |
| --- | --- | --- | --- | --- |
| CN(C)C(=O)c1ccc(Nc2nn(C(CC#N)C3CC3)cc2C(N)=O)cc1 (stereo not drawn) [Example 4-22, 1-(2-cyano-1-cyclopropylethyl)-3-{[4-(dimethylcarbamoyl)phenyl]amino}-1H-pyrazole-4-carboxamide] | 3 | 16 | – | – |
| CC(C)COC(=O)N1CCC([C@H](CC#N)n2cc(C(N)=O)c(Nc3ccc(F)cc3)n2)CC1 (single isomer, unassigned) [Example 12-3, 2-methylpropyl 4-[(1S or 1R)-1-{4-carbamoyl-3-[(4-fluorophenyl)amino]-1H-pyrazol-1-yl}-2-cyanoethyl]piperidine-1-carboxylate] | 245 | 1500 | – | – |
| N#CCC(C1CC1)n1cc(C(N)=O)c(Nc2ccccc2)n1 (single isomer, unassigned) [Example 17-3, 1-[(1S or 1R)-2-cyano-1-cyclopropylethyl]-3-(phenylamino)-1H-pyrazole-4-carboxamide] | 10 | 79 | – | – |
| CC(C)(C)OC(=O)N1CCC(C(CC#N)n2cc(C(N)=O)c(Nc3ccccc3)n2)CC1 (single isomer, unassigned) [Example 15-1, tert-Butyl 4-{(1S or 1R)-1-[4-carbamoyl-3-(phenylamino)-1H-pyrazol-1-yl]-2-cyanoethyl}piperidine-1-carboxylate] | – | – | 13 | 601 |
| N#CC[C@@H](C1CCN(C(=O)OCc2ccccc2)CC1)n1cc(C(N)=O)c(Nc2ccc(F)cc2)n1 (single isomer, unassigned) [Example 12-6, benzyl 4-[(1S or 1R)-1-{4-carbamoyl-3-[(4-fluorophenyl)amino]-1H-pyrazol-1-yl}-2-cyanoethyl]piperidine-1-carboxylate] | 190 | 1500 | – | – |
| CC(=O)Nc1ccc(Nc2nn(C(CC#N)C3CC3)cc2C(N)=O)cc1 (stereo not drawn) [Example 4-21, 3-{[4-(acetylamino)phenyl]amino}-1-(2-cyano-1-cyclopropylethyl)-1H-pyrazole-4-carboxamide] | 8 | 45 | – | – |
| C[S+]([O-])c1ccc(Nc2nn(C(CC#N)C3CC3)cc2C(N)=O)cc1 (stereo not drawn) [Example 4-32, 1-(2-cyano-1-cyclopropylethyl)-3-{[4-(methylsulfinyl)phenyl]amino}-1H-pyrazole-4-carboxamide] | 1 | 13 | – | – |
| N#CC[C@@H](C1CCN(C(=O)OC2CCOCC2)CC1)n1cc(C(N)=O)c(Nc2ccc(F)cc2)n1 [Example 11-8, tetrahydro-2H-pyran-4-yl 4-[(1S)-1-{4-carbamoyl-3-[(4-fluorophenyl)amino]-1H-pyrazol-1-yl}-2-cyanoethyl]piperidine-1-carboxylate] | 220 | 1500 | – | – |
| CNC(=O)c1ccc(Nc2nn(C(CC#N)C3CC3)cc2C(N)=O)cc1 (stereo not drawn) [Example 4-13, 1-(2-cyano-1-cyclopropylethyl)-3-{[4-(methylcarbamoyl)phenyl]amino}-1H-pyrazole-4-carboxamide] | 2 | 21 | – | – |
| CC(C)(C)OC(=O)N1CCC(C(C)(CC#N)n2cc(C(N)=O)c(Nc3ccccc3)n2)CC1 (stereo not drawn) [Example 3-3, tert-butyl 4-{2-[4-carbamoyl-3-(phenylamino)-1H-pyrazol-1-yl]-1-cyanopropan-2-yl}piperidine-1-carboxylate] | 5 | 236 | – | – |
| CS(=O)(=O)CCOC(=O)N1CCC(C(CC#N)n2cc(C(N)=O)c(Nc3ccc(F)cc3)n2)CC1 (stereo not drawn) [Example 11-3, 2-(methylsulfonyl)ethyl 4-(1-{4-carbamoyl-3-[(4-fluorophenyl)amino]-1H-pyrazol-1-yl}-2-cyanoethyl)piperidine-1-carboxylate] | 122 | 1500 | – | – |
| N#CCC(C1CC1)n1cc(C(N)=O)c(Nc2cccc(CO)c2)n1 (stereo not drawn) [Example 4-10, 1-(2-cyano-1-cyclopropylethyl)-3-{[3-(hydroxymethyl)phenyl]amino}-1H-pyrazole-4-carboxamide] | 12 | 41 | – | – |

Reference: patent US9493441B2, “Acyclic cyanoethylpyrazoles as janus kinase inhibitors” (Merck Sharp & Dohme Corp., priority 2011, dated 2016)
